Results taken from publication doi:10.1101/2022.02.10.479976v1 (bioRxiv, 2022).
Several values for one entry are separate records, joined by “and”; a condition that tells them apart may be missing. Equal values may be shown once.

Tests used:
[1] = cited from earlier work
[2] = Distribution of calcitonin in sub-compartments of sheep blood in vitro; format: in vitro ADME; conditions: calcitonin treated group, 2.5 ng/ml; sum of all five compartments = 100 percent
[3] = cited from earlier work; remark: listed apart in the source
[4] = cited from earlier work; remark: listed apart in the source

| Substance | elimination half-life [1] | distribution of calcitonin associated with RBC [2] | distribution of calcitonin in plasma [2] | distribution of calcitonin on WBC-surface [2] | sustained pharmacodynamic effects (duration) [3] | half-life [1] | bioavailability ([1]; parenteral delivery, various formulations) | plasma protein binding [4] |
| --- | --- | --- | --- | --- | --- | --- | --- | --- |
| salmon Calcitonin | 54 to 76 min |  |  |  |  |  |  |  |
| Calcitonin |  | less than 8% | ~30% | ~30% and ~40% | 18 to 22 h | 40 to 60 min | up to 70% | ~40% |
